Measured values as given in US20060153913A1, “Solid formulation with improved solubility and stability, and method for producing said formulation” (priority 2004, published 2006).

How the values were obtained:
Assay type in all cases: physicochemical
[1] = Dissolution test, second method of Japanese Pharmacopoeia (paddle method); settings: after 60 minutes; paddle method 50 rpm, 0.1 w/v % sodium lauryl sulfate solution 900 mL, 37° C.
Procedure: Dissolution test was performed following the second method of Japanese Pharmacopoeia dissolution test method (paddle method, 50 rpm) using a 0.1 w/v % deaerated sodium lauryl sulfate solution (900 mL, 37° C.). The tablets (133.00 mg/tablet; containing 5 mg of bulk drug) produced in Example 1 were put into the test solution as they were. For referential control, the bulk drug consisting crystal was put into the test solution as it was. The temperature was adjusted to 37±0.1° C.

[2] = Stability test under heating condition at 80° C. (HPLC impurities, powder X-ray diffraction)
Procedure: Each of the powder formulations obtained in Example 3 was tested under heating condition at 80° C. The purity was determined by high performance liquid chromatography (measured wave length; 242 nm). The state of crystallization was estimated by powder X-ray diffraction.

[3] = Stability test under humid condition at 40° C.; settings: Immediately after Formulation
Procedure: Each of the powder formulations obtained in Example 3 was tested under heating condition at 40° C. under humid condition.

[4] = 80° C., Open Condition, After 3 days

CCOC(=O)C(COC(=O)Cc1ccc(NC(=O)c2ccccc2-c2ccc(C(F)(F)F)cc2)c(C(=O)N(C)C)c1)(C(=O)OCC)c1ccccc1 [MTP Inhibiting Compound, diethyl 2-(2-{3-dimethylcarbamoyl-4-[(4′-trifluoromethyl-biphenyl-2-carbonyl)-amino]-phenyl}-acetoxymethyl)-2-phenyl-malonate]
dissolution [1]: did not dissolve | Impurities Max (%) [2, 4]: 0.08% | Impurities Total (%) [2, 4]: 0.24% | Impurities Max (%) ([2]; Immediately after Formulation): 0.28% | Impurities Total (%) ([2]; Immediately after Formulation): 0.40% | Impurities Max (%) [3]: 0.11% | Impurities Total (%) [3]: 0.40%
